Data: patent US5374626A, “5'-alkylphosphonylnucleosides as antivirals” (priority 1989, dated 1994)
Where two headings read alike, the source gives them in different places.

Tested on: Influenza virus
Conditions: mice, ninth day

## NC(=O)c1ncn([C@@H]2O[C@H](CO)[C@@H](O)[C@H]2O)n1 [RIBAVIRIN]
1.6 mg/kg (31 mcg/mouse) I.N., Wilcoxon * p < 0.01, ° p < 0.025
  % PROTECTION (LUNG LESIONS) TEST: 15%
100 mg/kg (2000 mcg/mouse) P.OS, * p < 0.01 Wilcoxon
  % PROTECTION (LUNG LESIONS) TEST: 27%
